Measurements from ChEMBL document CHEMBL3885861, “Open TG-GATES”.

Organism: Rattus norvegicus
Assay: Open TG-GATES - Regimen: Daily Repeat
Type: toxicity, organism-based, Sprague-Dawley
Parameters: regimen Daily Repeat, gender Male, age 6 weeks
Details: in vivo, po, 30 mg/kg, route gavage, dose level High; for APTT / Bas / Eos / Fbg / Hb / Ht / Lym / MCH / MCHC / MCV / Mono / Neu / PT / Plat / RBC / Ret / WBC: tissue Blood; for KIDNEY_L / KIDNEY_R / KIDNEY_TOTAL: tissue Kidney; for LIVER: tissue Liver; for A/G / ALP / ALT / AST / BUN / CRE / Ca / Cl / DBIL / GLC / IP / K / LDH / Na / PL / RALB / TBIL / TC / TG / TP / gamma-GTP: tissue Plasma

CN(C)CCC(c1ccc(Cl)cc1)c1ccccn1 (configuration not stated) [CHLORPHENIRAMINE]
TERMINAL_BW (72 h, time 3 day): 205.8 g
APTT (72 h, time 3 day): 18.2 s
Bas (72 h, time 3 day): 0.4%
Eos (72 h, time 3 day): 1%
Fbg (72 h, time 3 day): 272.2 mg/dL
Hb (72 h, time 3 day): 14.3 g/dL
Ht (72 h, time 3 day): 43.8%
Lym (72 h, time 3 day): 78.6%
MCH (72 h, time 3 day): 20.4 pg
MCHC (72 h, time 3 day): 32.5%
MCV (72 h, time 3 day): 62.5 fL
Mono (72 h, time 3 day): 3.2%
Neu (72 h, time 3 day): 15.8%
PT (72 h, time 3 day): 15.3 s
Plat (72 h, time 3 day): 124 x10_4/uL
RBC (72 h, time 3 day): 701 x10_4/ul
Ret (72 h, time 3 day): 3.4%
WBC (72 h, time 3 day): 91.9 x10_2/uL
KIDNEY_L (72 h, time 3 day): 1 g
KIDNEY_R (72 h, time 3 day): 0.9 g
KIDNEY_TOTAL (72 h, time 3 day): 1.9 g
LIVER (72 h, time 3 day): 8.8 g
A/G (72 h, time 3 day): 0.9
ALP (72 h, time 3 day): 1539.6 IU/L
ALT (72 h, time 3 day): 38 IU/L
AST (72 h, time 3 day): 67.2 IU/L
BUN (72 h, time 3 day): 14.8 mg/dL
CRE (72 h, time 3 day): 0.2 mg/dL
Ca (72 h, time 3 day): 10.3 mg/dL
Cl (72 h, time 3 day): 108.8 meq/L
DBIL (72 h, time 3 day): 0.012 mg/dL
GLC (72 h, time 3 day): 182.6 mg/dL
IP (72 h, time 3 day): 7.5 mg/dL
K (72 h, time 3 day): 4.5 meq/L
LDH (72 h, time 3 day): 95.6 IU/L
Na (72 h, time 3 day): 142.2 meq/L
PL (72 h, time 3 day): 133 mg/dL
RALB (72 h, time 3 day): 2.6 g/dL
TBIL (72 h, time 3 day): 0.038 mg/dL
TC (72 h, time 3 day): 74.6 mg/dL
TG (72 h, time 3 day): 62.6 mg/dL
TP (72 h, time 3 day): 5.5 g/dL
gamma-GTP (72 h, time 3 day): 1.2 IU/L
TERMINAL_BW ([…], time 7 day): 242.7 g
TERMINAL_BW ([…], time 14 day): 294.5 g
TERMINAL_BW ([…], time 28 day): 368.6 g
APTT ([…], time 7 day): 19.1 s
Bas ([…], time 7 day): 0.4%
Eos ([…], time 7 day): 1%
Fbg ([…], time 7 day): 302.6 mg/dL
Hb ([…], time 7 day): 13.6 g/dL
Ht ([…], time 7 day): 40.9%
Lym ([…], time 7 day): 74%
MCH ([…], time 7 day): 20.5 pg
MCHC ([…], time 7 day): 33.3%
MCV ([…], time 7 day): 61.4 fL
Mono ([…], time 7 day): 3.2%
Neu ([…], time 7 day): 21.2%
PT ([…], time 7 day): 13.9 s
Plat ([…], time 7 day): 119 x10_4/uL
RBC ([…], time 7 day): 665.2 x10_4/ul
Ret ([…], time 7 day): 3.6%
WBC ([…], time 7 day): 121.3 x10_2/uL
APTT ([…], time 14 day): 17.1 s
Bas ([…], time 14 day): 0.2%
Eos ([…], time 14 day): 0.8%
Fbg ([…], time 14 day): 282 mg/dL
Hb ([…], time 14 day): 14.1 g/dL
Ht ([…], time 14 day): 42.4%
Lym ([…], time 14 day): 79.2%
MCH ([…], time 14 day): 19.9 pg
MCHC ([…], time 14 day): 33.4%
MCV ([…], time 14 day): 59.7 fL
Mono ([…], time 14 day): 2.6%
Neu ([…], time 14 day): 16.4%
PT ([…], time 14 day): 14.3 s
Plat ([…], time 14 day): 113.7 x10_4/uL
RBC ([…], time 14 day): 709 x10_4/ul
Ret ([…], time 14 day): 4.6%
WBC ([…], time 14 day): 93.8 x10_2/uL
APTT ([…], time 28 day): 20.7 s
Bas ([…], time 28 day): 0%
Eos ([…], time 28 day): 0.8%
Fbg ([…], time 28 day): 290.6 mg/dL
Hb ([…], time 28 day): 15.8 g/dL
Ht ([…], time 28 day): 46.8%
Lym ([…], time 28 day): 80.6%
MCH ([…], time 28 day): 19 pg
MCHC ([…], time 28 day): 33.8%
MCV ([…], time 28 day): 56.2 fL
Mono ([…], time 28 day): 2.6%
Neu ([…], time 28 day): 14.8%
PT ([…], time 28 day): 15.1 s
Plat ([…], time 28 day): 110.6 x10_4/uL
RBC ([…], time 28 day): 834 x10_4/ul
Ret ([…], time 28 day): 2.2%
WBC ([…], time 28 day): 98.8 x10_2/uL
KIDNEY_L ([…], time 7 day): 1 g
KIDNEY_R ([…], time 7 day): 1 g
KIDNEY_TOTAL ([…], time 7 day): 2 g
KIDNEY_L ([…], time 14 day): 1.1 g
KIDNEY_R ([…], time 14 day): 1.1 g
KIDNEY_TOTAL ([…], time 14 day): 2.3 g
KIDNEY_L ([…], time 28 day): 1.5 g
KIDNEY_R ([…], time 28 day): 1.4 g
KIDNEY_TOTAL ([…], time 28 day): 2.9 g
LIVER ([…], time 7 day): 10.9 g
LIVER ([…], time 14 day): 12.6 g
LIVER ([…], time 28 day): 15.6 g
A/G ([…], time 7 day): 0.8
ALP ([…], time 7 day): 1512.4 IU/L
ALT ([…], time 7 day): 40.6 IU/L
AST ([…], time 7 day): 65 IU/L
BUN ([…], time 7 day): 16 mg/dL
CRE ([…], time 7 day): 0.2 mg/dL
Ca ([…], time 7 day): 11.3 mg/dL
Cl ([…], time 7 day): 106.2 meq/L
DBIL ([…], time 7 day): 0.012 mg/dL
GLC ([…], time 7 day): 185.6 mg/dL
IP ([…], time 7 day): 7.6 mg/dL
K ([…], time 7 day): 4.4 meq/L
LDH ([…], time 7 day): 112.2 IU/L
Na ([…], time 7 day): 141.6 meq/L
PL ([…], time 7 day): 163.6 mg/dL
RALB ([…], time 7 day): 2.6 g/dL
TBIL ([…], time 7 day): 0.028 mg/dL
TC ([…], time 7 day): 86.4 mg/dL
TG ([…], time 7 day): 117 mg/dL
TP ([…], time 7 day): 5.8 g/dL
gamma-GTP ([…], time 7 day): 1 IU/L
A/G ([…], time 14 day): 0.8
ALP ([…], time 14 day): 1415.4 IU/L
ALT ([…], time 14 day): 32.8 IU/L
AST ([…], time 14 day): 57.8 IU/L
BUN ([…], time 14 day): 15.4 mg/dL
CRE ([…], time 14 day): 0.2 mg/dL
Ca ([…], time 14 day): 11.1 mg/dL
Cl ([…], time 14 day): 105.8 meq/L
DBIL ([…], time 14 day): 0.012 mg/dL
GLC ([…], time 14 day): 190.6 mg/dL
IP ([…], time 14 day): 7.6 mg/dL
K ([…], time 14 day): 4.6 meq/L
LDH ([…], time 14 day): 122.4 IU/L
Na ([…], time 14 day): 141.8 meq/L
PL ([…], time 14 day): 155.8 mg/dL
RALB ([…], time 14 day): 2.8 g/dL
TBIL ([…], time 14 day): 0.03 mg/dL
TC ([…], time 14 day): 82.4 mg/dL
TG ([…], time 14 day): 121 mg/dL
TP ([…], time 14 day): 6 g/dL
gamma-GTP ([…], time 14 day): 1 IU/L
A/G ([…], time 28 day): 0.8
ALP ([…], time 28 day): 1092.6 IU/L
ALT ([…], time 28 day): 34 IU/L
AST ([…], time 28 day): 54.6 IU/L
BUN ([…], time 28 day): 16 mg/dL
CRE ([…], time 28 day): 0.2 mg/dL
Ca ([…], time 28 day): 10.7 mg/dL
Cl ([…], time 28 day): 105.6 meq/L
DBIL ([…], time 28 day): 0.014 mg/dL
GLC ([…], time 28 day): 184 mg/dL
IP ([…], time 28 day): 7.1 mg/dL
K ([…], time 28 day): 4.4 meq/L
LDH ([…], time 28 day): 92.8 IU/L
Na ([…], time 28 day): 144.2 meq/L
PL ([…], time 28 day): 150.2 mg/dL
RALB ([…], time 28 day): 2.8 g/dL
TBIL ([…], time 28 day): 0.03 mg/dL
TC ([…], time 28 day): 75.2 mg/dL
TG ([…], time 28 day): 148 mg/dL
TP ([…], time 28 day): 6.2 g/dL
gamma-GTP ([…], time 28 day): 1.2 IU/L
